No end group written: not given here.
Columns and labels:
[1] = system: human PMNs; assay: PMN migration in microchemotaxis chambers; format: cell-based; design: key to PMN MIGRATION: (+) indicates the peptide induced PMN migration; (−) indicates the peptide did not induce PMN migration above levels seen in controls which contained no chemotactic stimulus; conditions: for PMN MIGRATION: peptides 100 pM in each case; for Induction of PMN migration (chemotaxis): microchemotaxis chamber, 45 min at 37° C.
Description: (§1) Assessment of mononuclear phagocyte (mononuclears) and polymorphonuclear leukocyte (PMN) migration. Human peripheral blood monocytes were isolated from the blood of normal healthy volunteers (30). Blood was centrifuged on Hisopaque 1077 (Sigma, St. Louis, Mo.), the mononuclear fraction was obtained, washed twice in Earle's balanced salt solution, resuspended in RPMI 1640 containing human serum (10%; Gemini, Calabasas, Calif.), plated on tissue culture dishes and incubated at 37° C. for 1-2 hrs. Nonadherent cells were removed by washing the plate twice with balanced salt solution, and adherent cells were harvested by incubation with calcium-magnesium free buffer containing EDTA (2 mM) for 15 min at 37° C., followed by extensive washing. PMNs were prepared by centrifugation over Hisopaque 1119 as per the manufacturer's protocol (Sigma). Chemotaxis assays were performed in microchemotaxis chamber (NeuroProbe, Bethesda, Md.) containing Nucleopore polycarbonate membranes (5 μm; Nucleopore, Pleasonton, Calif.). Mononuclears or PMNs were suspended in RPMI 1640 containing fetal bovine serum (1%) and 10^4 cells were added per well to the upper chamber. The chemotactic stimulus was added to the indicated chamber, and assays were performed in quadruplicate over a 3 hr or 45 min incubation period at 37° C., with mononuclear cells or PMNs, respectively, after which non-migrating cells were removed, membranes were fixed in methanol, migrating cells were visualized with Wright's stain. Cells in nine high-power fields were counted, and the mean and standard error of the mean (SEM) were determined.
(§2) Cell migration was studied by adding MPs or PMNs (10^4 cells/well) resuspended in RPMI 1640 with fetal calf serum (1%; Gemini) to the upper wells of a microchemotaxis chamber (Neuro Probe, Bethesda, Md.) containing Nucleopore polycarbonate membranes (5 μm, Nucleopore, Pleasanton Calif.), as described (7,29-30). The chemotactic stimulus was placed in the upper or lower chamber, as indicated, and cells were allowed to migrate for 3 hrs (for MPs) or 45 min (for PMNs) at 37° C. Following removal of non-migrating cells, membranes were fixed in methanol and migrating cells were visualized with Wright's stain. Assays were performed in quadruplicate, and cells were counted in nine high-power fields in each case (mean±SEM is shown in the figures).
(§3) Migration of PMNs and MPs—Migration was studied using cells (10^4 and 10^3 cells/well form PMNs and MPs, respectively) resuspended in RPMI 1640 with fetal calf serum (1%) added to the upper wells of a microchemotaxis chamber (Neuro Probe, Bethesda, Md.) containing Nucleopore polycarbonate membranes (5 um, Nucleopor, Pleasanton, Calif.), as described (13, 22, 35). The stimulus was placed in the upper or lower chamber, as indicated, and the cells were allowed to migrate for 3 h (for MPs) or 45 min (for PMNs) at 37° C. Following removal of nonmigrating cells, membranes were fixed in methanol, and migrating cells were visualized with Wright's stain. Assays were performed in quadruplicate, and cells were counted in […] high-power fields in each case (mean±S.E. is shown in the figures).

[2] = system: human peripheral blood monocytes (MPs); assay: Mononuclear phagocyte migration in microchemotaxis chambers; format: cell-based; conditions: microchemotaxis chamber, 3 hrs at 37° C.
Description: as §1, §2, §3

[3] = system: human MPs; assay: Radioligand binding of 125I-[…] to MPs; conditions: for Competition for binding of 125I-RIGRIVTAKY to MPs by unlabelled peptide/protein: excess / increasing concentrations of unlabelled competitor
Description: Radioligand binding studies were performed on human MPs plated in 96-well plates (5-6×10^4 cells/well). Cells were washed twice with Hanks balanced salt solution, and then Dulbecco's Modified Eagle Medium containing HEPES (25 mM; pH 7.4), penicillin/streptomycin (50 U/ml; 50 μg/ml), and bovine serum albumin-fatty acid free (0.5%; Sigma) were added (0.1 ml/well). Cultures were incubated at 4° C. for 2 hrs with ^125I-[…] alone or in the presence of unlabelled peptide/protein. Each well was washed four times over a period of 20 sec, and cell-associated radioactivity was eluted by an acidic buffer (HCl, 0.1 M, pH 2; NaCl, 0.1 M) at 4° C. for 5 min. During the elution period, there was no detachment of cells from the growth substrate. The conditions for incubation and washing used in the binding studies shown in FIG. 3 (2 hrs at 4° C.) were […] to allow binding of ^125I-[…] to reach an apparent maximum, even at the lowest tracer concentrations, and to remove unbound material by washing quickly so that <10% of the cell-bound radioactivity dissociated.

[4] = system: ECs; assay: Pilot binding studies using ECs; conditions: data not shown
[5] = system: human PMNs; assay: [Ca2+]i measurement in PMNs (fura-2); format: cell-based
Description: (§4) [Ca^2+1]i measurements. PMNs or MPs (2×10^7 cells in each case) were incubated with fura-2 AM (1 μM) and pluronic detergent (0.02%) for 12 min at room temperature, diluted sixfold, and incubated for a further 30 min at room temperature to allow for complete hydrolysis of the dye. Cells were then resuspended in HEPES-buffered saline at 5×10^5 cells/ml (32). For experiments using MPs, sulfinpyrazone (0.5 mM) was included at all steps to minimize both dye sequestration into intracellular organelles and dye efflux (33). Fluorescence of fura-2 was monitored at 37° C. in a thermostatically-controlled cuvette installed in a Perkin Elmer Model 650-40 fluorescense spectrophotometer. Calibration of [Ca^2+]i was performed as described (34).
(§5) For determination of [Ca^2+] in PMSs and MPs, cells (2×10^7 in each case) were incubated with fura-2 AM (1 um) and pluronci detergent (0.02%) at room temperature, diluted 6-fold, and incubated for a further 30 min at room temperature to allow for complete hydrolysis of the dye. Cells were then resuspended in HEPES-buffered saline at 5×10^5 cells/ml (32). For MPs, sulfinpyrazone (0.5 mM) was included at all steps to minimize both dye sequestration into intracellular organelles and dye efflux (33). Fluorescence of fura-2 was monitored at 37° C. in a thermostatically controlled cuvette installed in a Perkin Elmer model 650-40 fluorescence spectrophotometer. Calibration of [Ca^2+] was performed as described (34).

[6] = system: human MPs; assay: [Ca2+]i measurement in MPs (fura-2); format: cell-based
Description: as §4
as §5, with “Calibration of [Ca^2+] was performed as described (34).” left out

Substance | PMN MIGRATION [1] | Competition for binding of 125I-RIGRIVTAKY to MPs by unlabelled peptide/protein [3] | other results
RIGRIIT | + |  | 
AVLPRSAKELRL [peptide derived from the ELR-region of IL-8, residues #23-34, reference compound] |  |  | Induction of PMN migration (chemotaxis) [1]: no chemotaxis was observed; Induction of MP (mononuclear cell) migration (chemotaxis) [2]: inactive
IRKDMDKVETFLRIVQ [irrelevant peptide derived from growth hormone, reference compound] |  |  | Induction of PMN migration (chemotaxis) [1]: no chemotaxis was observed; Induction of MP (mononuclear cell) migration (chemotaxis) [2]: inactive
ASRLDLRIGRIVTAK | + |  | 
125I-RIGRIVTAKY (also: 125I label) |  |  | N, binding sites ([3]; 4° C.): 8.3±1.2×10^3 molecules of peptide bound per cell; Kd ([3]; read-out: Kd of specific binding to MPs (one-site model), 4° C.): 0.19 ± 0.11 nM; Specific binding to ECs [4]: specific binding
ASRLDLRTGRIVT |  | blocked | 
RIGRIVTAKY | + |  | Rise in [Ca2+]i in PMNs [5]: did not promote enhanced [Ca^2+]i
RICRIVTAK |  | inhibition | 
ASRLDLRIGC*IVTAK | + |  | 
CRAQTMANSGIK [peptide derived from the C-terminal portion of EMAP II, reference compound] |  | had no effect | Induction of PMN migration (chemotaxis) [1]: no chemotaxis was observed; Induction of MP (mononuclear cell) migration (chemotaxis) [2]: inactive
RIGRAVT | − | had no effect | 
AIGRIVT | + |  | 
LRIGRIVTAKY | + |  | 
ASRLDL | − | had no effect | Rise in [Ca2+]i in PMNs [5]: inactive
RIGRIVT | + | blocked | Rise in [Ca2+]i in PMNs [5]: did not promote enhanced [Ca^2+]i; Rise in [Ca2+]i in MPs [6]: insufficient to promote increases in [Ca^2+]i

— patent US6734168B2, “Endothelial monocyte activating polypeptide II: a mediator which activates host response” (The Trustees of Columbia University in the City of New York, priority 1993, dated 2004)
